Experimental data: patent US20140004458A1, “MAGENTA TONER” (CANON KABUSHIKI KAISHA, priority 2011, published 2014)

Legend:
[1] = evaluation of lightness and saturation of image sample (L*a*b* chromaticity); type: physicochemical; conditions: toner using the compound, in words
Procedure: Image samples were formed using the resulting toners. The lightness and saturation of the samples were evaluated. To compare image characteristics, an image output test was made using a modified apparatus of LBP-5300 (manufactured by CANON KABUSHIKI KAISHA) as an image forming apparatus. The modification was performed in such a manner that a developing blade in a process cartridge was replaced with a stainless blade having a thickness of […] and that a blade bias of −200 V against a developing bias that was applied to a developing roller serving as a toner support was applicable.
With respect to each of the resulting image samples, chromaticity (L*, a*, b*) in the L*a*b* color system was measured with a reflection densitometer (Model: SpectroLino, manufactured by GretagMacbeth).
In the L*a*b* space, color coordinates indicating the magenta color of the Japan Color 2001 are defined as X (L1, a1, b1). In the L*a*b* space, coordinates of an intersection point of a plane including the L* axis and the coordinates X and the a*b* curve of the image sample obtained by the chromaticity measurement are defined as Y (L2, a2, b2). The a*b* curve is obtained by forming a plurality of image samples having different toner adhesion amounts. The difference Δc (=c2−c1) between a c* value [=c2={(a2^2+b2^2)}^1/2] at the intersection point Y and a c* value [=c1={(a1^2+b1^2)}^1/2] at the coordinates X was calculated. The difference ΔL (=L2−L1) between an L* value (=L2) at the intersection point Y and an L* value (=L1) at the coordinates X was calculated.
The lightness and saturation were evaluated on the basis of the following evaluation criteria.
A: Δc is 0 or more, and ΔL is 0 or more; B: Δc is −5 or more, and ΔL is −5 or more, excluding the case of Class A described above; and C: Δc is less than −5, or ΔL is less than −5.
In the case where Δc was −5 or more and ΔL was −5 or more, the sample was evaluated to have satisfactory lightness and saturation.

[2] = evaluation of lightfastness of image sample (Atlas Weather-Ometer Ci4000); type: physicochemical; conditions: toner using the compound, in words; for lightfastness: satisfactory = ΔE less than 10 after 60 hours
Procedure: The image samples were placed in Atlas Weather-Ometer Ci4000 (from Toyo Seiki Seisaku-sho, Ltd.) and exposed for 60 hours. In this case, measurement conditions were as follows: black panel temperature: 50° C., chamber temperature: 40° C., relative humidity: 70%, and irradiance: 0.39 W/m^2 (340 nm).
The chromaticity (L*, a*, b*) in the L*a*b* color system was measured with the reflection densitometer (Model: SpectroLino, manufactured by GretagMacbeth) before and after the exposure test. The color difference (ΔE) was calculated from the following expression on the basis of measurements of the color characteristics:
Color difference(ΔE)={(a*before test−a*after test)^2+(b*before test−b*after test)^2+(L*before test−L*after test)^2}^1/2
In the case where ΔE was less than 10 after 60 hours, the sample was evaluated to have satisfactory lightfastness.

Compound | lightness [1] | balance between the saturation and lightfastness [2] | lightness and saturation [1] | lightfastness [2]
CCN(CC)c1ccc2c(c1)Oc1cc(N(CC)CC)ccc1C21OC(=O)c2ccccc21 [(1)] | satisfactory | not provided |  | 
Cc1ccc(/N=N/c2c(O)c(C(=O)O)cc3ccccc23)c(S(=O)(=O)O)c1 [(3)] |  |  | not sufficient | satisfactory
Cc1ccc(Nc2ccc3c4c(cc(=O)n3C)-c3ccccc3C(=O)c24)cc1 [(2)] |  |  | not sufficient | satisfactory
